Calls of active or inactive are those of the source.
What was measured:
[1] = M. tuberculosis H37Rv growth inhibitors, H37Rv strain (AID 1626); format: functional
[2] = molecular target: T1, Heat shock factor protein 1 (Mus musculus, UniProt P38532); test: HSF1 potentiators in luciferase reporter cells, confirmation, cell-based, NIH3T3, luminescence, dose retest (AID 435004); format: functional;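 further: stress induced by proteasome inhibitor MG132 added 30 min after compound; luciferase reporter driven by HSF1 response element in NIH3T3 cells; actives raise luminescence as potentiators of the MG132 stress response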
T1 sequence (P38532 whole entry): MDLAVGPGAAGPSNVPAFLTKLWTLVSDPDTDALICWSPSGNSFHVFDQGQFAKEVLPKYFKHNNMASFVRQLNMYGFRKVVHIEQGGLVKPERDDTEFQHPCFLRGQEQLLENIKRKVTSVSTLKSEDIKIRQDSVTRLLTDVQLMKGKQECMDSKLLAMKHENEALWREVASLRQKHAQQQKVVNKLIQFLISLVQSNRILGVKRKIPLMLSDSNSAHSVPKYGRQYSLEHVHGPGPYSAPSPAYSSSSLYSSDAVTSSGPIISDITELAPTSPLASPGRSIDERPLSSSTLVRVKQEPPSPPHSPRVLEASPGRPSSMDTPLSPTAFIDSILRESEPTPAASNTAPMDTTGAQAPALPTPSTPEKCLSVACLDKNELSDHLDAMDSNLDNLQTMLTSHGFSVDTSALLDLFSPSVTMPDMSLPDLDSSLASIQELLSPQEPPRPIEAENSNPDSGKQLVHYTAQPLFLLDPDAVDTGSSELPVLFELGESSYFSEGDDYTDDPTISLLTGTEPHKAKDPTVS

[3] = P. falciparum Dd2 growth inhibitors, dose response, SYBR Green, dry powder samples, set 9 (AID 1159568); format: functional, cell-based
[4] = P. falciparum Dd2 growth inhibitors, dose response, SYBR Green, cherry-picked samples (AID 1159567); format: functional, cell-based
[5] = molecular target: T2, E3 ubiquitin-protein ligase XIAP (Homo sapiens, UniProt P98170); test: XIAP antagonists, biochemical, IAP family, fluorescence polarization (AID 1018); format: functional
T2 sequence (P98170 whole entry): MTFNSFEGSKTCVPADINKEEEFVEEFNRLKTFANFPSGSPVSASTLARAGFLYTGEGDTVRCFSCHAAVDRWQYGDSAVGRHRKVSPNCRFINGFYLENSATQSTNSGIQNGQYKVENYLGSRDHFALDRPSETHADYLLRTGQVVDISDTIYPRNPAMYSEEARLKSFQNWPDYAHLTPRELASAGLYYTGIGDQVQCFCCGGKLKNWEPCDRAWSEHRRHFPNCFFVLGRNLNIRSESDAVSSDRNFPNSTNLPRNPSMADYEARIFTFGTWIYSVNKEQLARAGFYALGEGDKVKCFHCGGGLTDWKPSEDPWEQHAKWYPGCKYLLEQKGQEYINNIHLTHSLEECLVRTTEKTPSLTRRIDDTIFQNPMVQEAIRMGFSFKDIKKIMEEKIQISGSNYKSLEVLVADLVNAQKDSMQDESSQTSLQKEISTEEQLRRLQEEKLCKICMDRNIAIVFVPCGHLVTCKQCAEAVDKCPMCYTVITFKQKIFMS

[6] = molecular target: T2, E3 ubiquitin-protein ligase XIAP; test: Counter Screen using XIAP-Bir3 for Chemical Antagonists of Bir1/2 domains of IAP-family anti-apoptotic proteins. [Related pubchem assays (depositor defined):AID1018, AID1449, AID1514, AID1638, AID1749, AID1750, AID488957, AID488963]
[7] = Luminescence Cell-Based Dose Confirmation HTS to Identify Activators of 5'UTR Stem-Loop Driven Alpha-Synuclein mRNA Translation in H4 Neuroglioblastoma Cells. [Related pubchem assays: 1829 (Project Summary), 1814 (Primary HTS)]; format: functional
[8] = Luminescence Cell-Based Dose Response HTS to Identify Activators of Luciferase Translation or Activity in H4 […] Cells. [Related pubchem assays: 1829 (Project Summary), 1814 (Primary HTS)]; format: functional
[9] = molecular target: T3, COUP transcription factor 2 (Homo sapiens, UniProt P24468); test: Luminescence-based cell-based high throughput dose response assay to identify inhibitors of COUP-TFII (NR2F2).; format: functional;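 further: HEK293 cells transiently cotransfected with COUP-TFII expression vector and reporter; luciferase reporter luminescence driven by COUP-TFII from the pX2-168 reporter plasmid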
T3 sequence (P24468 whole entry): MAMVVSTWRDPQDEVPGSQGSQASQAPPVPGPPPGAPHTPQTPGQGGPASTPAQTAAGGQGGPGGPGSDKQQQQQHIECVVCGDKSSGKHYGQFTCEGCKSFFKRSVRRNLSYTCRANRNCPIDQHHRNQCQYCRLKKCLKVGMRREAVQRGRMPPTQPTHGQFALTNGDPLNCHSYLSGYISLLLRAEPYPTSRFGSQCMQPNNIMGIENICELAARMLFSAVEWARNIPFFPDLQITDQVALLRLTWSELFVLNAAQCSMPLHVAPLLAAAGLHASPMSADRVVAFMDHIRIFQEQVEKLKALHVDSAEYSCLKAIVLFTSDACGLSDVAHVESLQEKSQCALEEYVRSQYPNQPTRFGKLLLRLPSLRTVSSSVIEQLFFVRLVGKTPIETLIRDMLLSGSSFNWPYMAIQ

[10] = tested on: H4; test: Luminescence Cell-Based Dose Response HTS to Identify Activators of 5'UTR Stem-Loop Driven Prion Protein mRNA Translation in H4 Neuroglioblastoma Cells. [Related pubchem assays: 1829 (Project Summary), 1814 (Primary HTS)]; format: functional; conditions: Homo sapiens
[11] = molecular target: FAD-linked sulfhydryl oxidase ALR (Homo sapiens, UniProt P55789); test: inhibitors of human ALR sulfhydryl oxidase, dose response, biochemical, H2O2 detection, luminescence, cherry-pick (AID 493248)
Sequence of FAD-linked sulfhydryl oxidase ALR (P55789 whole entry): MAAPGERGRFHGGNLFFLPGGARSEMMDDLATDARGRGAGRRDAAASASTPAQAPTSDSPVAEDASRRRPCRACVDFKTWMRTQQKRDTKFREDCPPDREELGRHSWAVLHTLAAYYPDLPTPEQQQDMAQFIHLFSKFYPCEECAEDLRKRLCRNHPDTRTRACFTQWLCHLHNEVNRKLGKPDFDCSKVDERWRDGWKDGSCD

[12] = molecular target: Mitogen-activated protein kinase 10 (Homo sapiens, UniProt P53779); test: Dose response biochemical screening assay for inhibitors of c-Jun N-Terminal Kinase 3 (JNK3). [Related pubchem assays: 746 ]
Sequence of Mitogen-activated protein kinase 10 (P53779 whole entry): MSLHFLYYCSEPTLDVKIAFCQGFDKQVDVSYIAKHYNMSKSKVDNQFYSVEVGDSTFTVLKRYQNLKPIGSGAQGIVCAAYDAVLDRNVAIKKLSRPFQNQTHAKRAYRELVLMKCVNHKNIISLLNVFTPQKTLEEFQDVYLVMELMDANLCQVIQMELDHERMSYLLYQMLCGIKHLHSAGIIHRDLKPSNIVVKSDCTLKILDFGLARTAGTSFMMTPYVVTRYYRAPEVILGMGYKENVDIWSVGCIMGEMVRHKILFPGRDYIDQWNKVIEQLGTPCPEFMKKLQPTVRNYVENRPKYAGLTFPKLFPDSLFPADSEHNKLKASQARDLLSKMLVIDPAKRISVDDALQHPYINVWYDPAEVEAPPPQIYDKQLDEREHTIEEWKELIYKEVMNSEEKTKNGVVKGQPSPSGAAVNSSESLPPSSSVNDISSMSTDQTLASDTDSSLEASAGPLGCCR

[13] = molecular target: T4, Mannose-6-phosphate isomerase (Homo sapiens, UniProt P34949); test: human PMI inhibitors, high substrate, primary screen, biochemical, fluorescence intensity, high mannose 6-phosphate (AID 1220)
T4 sequence (P34949 whole entry): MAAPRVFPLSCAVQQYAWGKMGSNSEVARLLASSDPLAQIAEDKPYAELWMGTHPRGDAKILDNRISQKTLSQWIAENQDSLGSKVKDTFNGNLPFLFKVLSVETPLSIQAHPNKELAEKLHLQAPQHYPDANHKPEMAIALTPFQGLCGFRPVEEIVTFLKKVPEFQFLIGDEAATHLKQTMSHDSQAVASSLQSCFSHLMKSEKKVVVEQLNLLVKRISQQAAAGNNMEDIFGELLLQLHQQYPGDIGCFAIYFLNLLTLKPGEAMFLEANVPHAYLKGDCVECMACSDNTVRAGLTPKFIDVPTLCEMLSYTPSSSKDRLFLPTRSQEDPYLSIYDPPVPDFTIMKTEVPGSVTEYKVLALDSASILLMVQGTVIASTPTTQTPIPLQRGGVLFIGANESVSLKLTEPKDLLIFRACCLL

[14] = HepG2 cell cytotoxicity, dose response, cytotoxicity control, cherry-picked samples (AID 1159577); format: functional, cell-based
[15] = molecular target: E3 ubiquitin-protein ligase Mdm2 (Homo sapiens, UniProt Q00987); test: enhancers of MDM2-luciferase reporter signal, concentration-effect titration, project on inhibitors of MDM2 ubiquitin ligase, cellular assay, luminescent readout, 384-well plate format (AID 1394); format: functional;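 further: MDM2 E3 inhibitors raise luminescence so EC50 is for signal enhancement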
Sequence of E3 ubiquitin-protein ligase Mdm2 (Q00987 whole entry): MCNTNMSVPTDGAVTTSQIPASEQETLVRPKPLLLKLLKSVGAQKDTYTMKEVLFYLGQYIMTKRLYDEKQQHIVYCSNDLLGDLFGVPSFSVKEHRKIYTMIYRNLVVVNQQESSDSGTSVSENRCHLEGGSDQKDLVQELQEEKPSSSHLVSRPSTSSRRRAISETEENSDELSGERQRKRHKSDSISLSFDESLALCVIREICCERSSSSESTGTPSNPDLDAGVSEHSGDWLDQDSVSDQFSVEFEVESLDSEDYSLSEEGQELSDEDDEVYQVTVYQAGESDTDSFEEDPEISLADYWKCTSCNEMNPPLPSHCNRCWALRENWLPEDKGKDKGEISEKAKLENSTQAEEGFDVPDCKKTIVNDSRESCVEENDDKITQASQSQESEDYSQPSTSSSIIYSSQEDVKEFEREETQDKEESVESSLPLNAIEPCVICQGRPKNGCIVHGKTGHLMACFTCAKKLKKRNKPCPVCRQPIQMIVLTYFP

[16] = molecular target: T5, Histone-lysine N-methyltransferase NSD2 (Homo sapiens, UniProt O96028); format: biochemical
T5 sequence (O96028 whole entry): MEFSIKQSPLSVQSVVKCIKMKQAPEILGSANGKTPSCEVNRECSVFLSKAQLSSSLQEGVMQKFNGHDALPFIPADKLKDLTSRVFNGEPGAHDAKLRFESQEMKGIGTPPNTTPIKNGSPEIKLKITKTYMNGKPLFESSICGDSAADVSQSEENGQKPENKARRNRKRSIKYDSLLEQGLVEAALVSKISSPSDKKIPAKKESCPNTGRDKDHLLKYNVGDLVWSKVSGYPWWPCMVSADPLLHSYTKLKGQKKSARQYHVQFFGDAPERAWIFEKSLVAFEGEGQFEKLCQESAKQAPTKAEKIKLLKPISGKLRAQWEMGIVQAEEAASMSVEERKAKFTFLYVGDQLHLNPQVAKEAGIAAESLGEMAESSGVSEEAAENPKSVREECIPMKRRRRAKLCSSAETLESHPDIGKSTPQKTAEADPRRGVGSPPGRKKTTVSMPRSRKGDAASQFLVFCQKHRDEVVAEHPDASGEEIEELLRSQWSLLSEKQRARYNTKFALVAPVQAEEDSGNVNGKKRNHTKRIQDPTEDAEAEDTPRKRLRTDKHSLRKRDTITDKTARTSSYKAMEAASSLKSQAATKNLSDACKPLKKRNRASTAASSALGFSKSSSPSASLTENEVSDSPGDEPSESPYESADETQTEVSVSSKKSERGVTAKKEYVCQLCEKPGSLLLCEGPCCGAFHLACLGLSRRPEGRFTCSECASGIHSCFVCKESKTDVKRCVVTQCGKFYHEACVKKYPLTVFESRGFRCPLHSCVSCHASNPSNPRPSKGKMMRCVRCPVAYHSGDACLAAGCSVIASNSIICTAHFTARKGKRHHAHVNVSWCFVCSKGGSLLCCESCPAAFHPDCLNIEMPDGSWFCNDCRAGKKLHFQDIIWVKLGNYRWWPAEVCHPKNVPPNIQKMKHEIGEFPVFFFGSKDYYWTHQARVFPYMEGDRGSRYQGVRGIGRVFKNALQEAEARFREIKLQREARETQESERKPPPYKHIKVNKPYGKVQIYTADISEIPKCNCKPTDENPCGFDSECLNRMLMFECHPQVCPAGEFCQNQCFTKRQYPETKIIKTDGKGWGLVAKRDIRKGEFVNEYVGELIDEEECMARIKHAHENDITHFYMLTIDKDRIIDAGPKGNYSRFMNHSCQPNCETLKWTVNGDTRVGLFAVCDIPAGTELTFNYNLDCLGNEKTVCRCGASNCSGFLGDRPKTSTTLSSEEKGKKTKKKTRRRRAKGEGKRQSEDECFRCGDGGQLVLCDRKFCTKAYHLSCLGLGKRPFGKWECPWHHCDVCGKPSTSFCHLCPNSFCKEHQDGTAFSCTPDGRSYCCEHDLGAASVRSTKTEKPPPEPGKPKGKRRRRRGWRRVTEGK

[17] = molecular target: T6, Endoribonuclease toxin MazF (Escherichia coli K-12, UniProt P0AE70); test: MazF toxin RNase activators, dose response, biochemical, fluorescence, single-stranded RNA substrate, uHTS hits (AID 588481); format: functional
T6 sequence (P0AE70 whole entry): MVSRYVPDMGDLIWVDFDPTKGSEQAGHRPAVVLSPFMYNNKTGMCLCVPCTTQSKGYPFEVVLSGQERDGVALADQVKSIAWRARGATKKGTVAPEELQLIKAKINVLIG

[18] = molecular target: T6, Endoribonuclease toxin MazF; test: fluorescent RNA oligo signal without MazF, dose response, counter-screen for MazEF activator project, biochemical, fluorescence, single-stranded RNase substrate (AID 588502); format: functional
[19] = molecular target: Cytochrome P450 2C9 (Homo sapiens, UniProt P11712)
Sequence of Cytochrome P450 2C9 (P11712 whole entry): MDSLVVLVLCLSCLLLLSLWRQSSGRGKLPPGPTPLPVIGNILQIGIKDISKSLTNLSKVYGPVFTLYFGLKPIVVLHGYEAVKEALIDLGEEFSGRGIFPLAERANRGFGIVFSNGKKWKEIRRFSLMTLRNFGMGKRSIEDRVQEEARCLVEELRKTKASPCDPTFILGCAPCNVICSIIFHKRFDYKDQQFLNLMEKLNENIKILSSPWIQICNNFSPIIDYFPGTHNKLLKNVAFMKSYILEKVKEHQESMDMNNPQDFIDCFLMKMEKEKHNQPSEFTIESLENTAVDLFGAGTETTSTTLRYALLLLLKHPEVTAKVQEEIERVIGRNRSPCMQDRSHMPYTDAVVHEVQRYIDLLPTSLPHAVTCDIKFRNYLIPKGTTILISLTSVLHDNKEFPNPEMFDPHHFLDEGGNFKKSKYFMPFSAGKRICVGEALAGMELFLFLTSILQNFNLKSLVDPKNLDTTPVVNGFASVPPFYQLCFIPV

[20] = molecular target: T7, Mucolipin-3 (Homo sapiens, UniProt Q8TDD5); test: Dose response cell-based high-throughput screening assay for agonists of the transient receptor potential channel ML3 (TRPML3). [Related pubchem assays: 1526, 1424, 1448 ]; format: functional
T7 sequence (Q8TDD5 whole entry): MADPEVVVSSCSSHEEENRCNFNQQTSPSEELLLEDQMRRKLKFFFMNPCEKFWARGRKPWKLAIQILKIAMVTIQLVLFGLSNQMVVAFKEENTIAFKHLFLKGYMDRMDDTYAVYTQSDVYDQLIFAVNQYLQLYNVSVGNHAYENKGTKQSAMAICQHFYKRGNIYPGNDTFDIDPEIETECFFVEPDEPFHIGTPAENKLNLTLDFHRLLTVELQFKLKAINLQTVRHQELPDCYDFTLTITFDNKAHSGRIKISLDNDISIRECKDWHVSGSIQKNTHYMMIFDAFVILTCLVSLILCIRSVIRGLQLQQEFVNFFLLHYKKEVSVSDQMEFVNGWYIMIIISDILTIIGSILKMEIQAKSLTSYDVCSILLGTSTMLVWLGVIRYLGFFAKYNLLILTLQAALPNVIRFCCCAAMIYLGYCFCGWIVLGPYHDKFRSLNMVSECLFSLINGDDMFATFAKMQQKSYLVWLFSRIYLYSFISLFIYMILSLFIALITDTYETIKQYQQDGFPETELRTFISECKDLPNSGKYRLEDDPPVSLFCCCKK

[21] = molecular target: Ion channel NompC (Danio rerio, UniProt Q7T1G6); test: Fluorescence counterscreen assay for TRPML3 agonists: dose response cell-based high-throughput screening assay to identify agonists of the transient receptor potential channel N1 (TRPN1). [Related pubchem assays: 1526, 1424, 1448 ]; format: functional
Sequence of Ion channel NompC (Q7T1G6 whole entry): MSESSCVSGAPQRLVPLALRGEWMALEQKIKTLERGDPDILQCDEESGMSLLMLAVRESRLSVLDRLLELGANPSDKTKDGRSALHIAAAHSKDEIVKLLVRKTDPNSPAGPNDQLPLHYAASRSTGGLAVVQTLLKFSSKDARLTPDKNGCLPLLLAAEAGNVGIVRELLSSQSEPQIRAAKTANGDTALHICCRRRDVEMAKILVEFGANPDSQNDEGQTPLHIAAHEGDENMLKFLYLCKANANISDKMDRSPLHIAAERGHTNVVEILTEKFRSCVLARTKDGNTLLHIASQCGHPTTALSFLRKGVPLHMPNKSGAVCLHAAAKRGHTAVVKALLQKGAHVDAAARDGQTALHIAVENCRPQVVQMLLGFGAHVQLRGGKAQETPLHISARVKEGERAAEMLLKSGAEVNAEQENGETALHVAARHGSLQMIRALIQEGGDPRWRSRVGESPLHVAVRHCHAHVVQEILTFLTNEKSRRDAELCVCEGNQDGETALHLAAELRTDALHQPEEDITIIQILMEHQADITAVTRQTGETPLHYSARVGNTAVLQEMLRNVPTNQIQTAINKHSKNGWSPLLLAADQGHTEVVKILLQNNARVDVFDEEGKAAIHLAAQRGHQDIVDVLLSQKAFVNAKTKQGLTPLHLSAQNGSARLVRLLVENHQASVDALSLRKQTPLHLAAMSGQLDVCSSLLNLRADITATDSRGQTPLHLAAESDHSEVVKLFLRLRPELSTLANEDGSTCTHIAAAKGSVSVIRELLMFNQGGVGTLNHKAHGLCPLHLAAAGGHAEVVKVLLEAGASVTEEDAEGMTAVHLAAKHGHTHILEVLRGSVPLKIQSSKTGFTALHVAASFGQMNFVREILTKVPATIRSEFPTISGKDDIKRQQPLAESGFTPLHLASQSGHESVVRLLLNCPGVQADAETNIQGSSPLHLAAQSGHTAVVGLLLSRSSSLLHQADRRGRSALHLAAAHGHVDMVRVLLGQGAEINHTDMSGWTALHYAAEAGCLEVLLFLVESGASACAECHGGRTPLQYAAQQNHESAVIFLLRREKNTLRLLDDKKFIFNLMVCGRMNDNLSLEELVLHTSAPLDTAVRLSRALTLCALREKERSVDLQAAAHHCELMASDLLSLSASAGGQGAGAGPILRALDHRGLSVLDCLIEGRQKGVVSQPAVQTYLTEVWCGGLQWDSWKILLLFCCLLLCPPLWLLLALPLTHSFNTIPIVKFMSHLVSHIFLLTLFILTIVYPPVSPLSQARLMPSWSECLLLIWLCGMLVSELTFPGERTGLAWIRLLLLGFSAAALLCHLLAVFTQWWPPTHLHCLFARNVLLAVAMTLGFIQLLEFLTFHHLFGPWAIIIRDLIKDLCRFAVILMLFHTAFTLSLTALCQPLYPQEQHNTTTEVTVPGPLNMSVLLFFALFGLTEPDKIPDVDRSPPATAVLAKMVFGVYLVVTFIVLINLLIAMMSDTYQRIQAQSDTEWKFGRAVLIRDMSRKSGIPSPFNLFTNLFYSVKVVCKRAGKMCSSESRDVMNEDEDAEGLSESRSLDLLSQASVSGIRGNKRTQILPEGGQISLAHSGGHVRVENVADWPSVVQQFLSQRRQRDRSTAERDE

## Nc1cnn(Cc2ccc(F)cc2)c1
[1]
  IC50: > 100 µM (active)
[2]
  EC50: > 260 µM (inactive)

## N#Cc1ccc(-c2ccc([C@@H]3[C@@H]4CN(C(=O)Nc5ccc6c(c5)OCO6)C[C@H]3N4)cc2)cc1
[3]
  AC50: 6.54 µM (active)
[4]
  AC50: 3.41 µM (active)

## CCSc1nnc(NC(=O)c2cc(-c3ccc(C)c(C)c3O)[nH]n2)s1
[5]
  IC50: > 100 µM (not active)
[6]
  IC50: > 100 µM (inactive)

## C[n+]1c2n(c3ccccc31)N=C(c1ccccc1)CS2
[7]
  EC50: 16 µM (active)
[8]
  EC50: > 120 µM (not active)
[9]
  IC50: 13.8 µM (inactive)
[10]
  EC50: > 120 µM (not active)
[11]
  AC50: 1.14 µM (active)

## CN1C=CC(=C2C(=O)c3ccccc3C2=O)C=C1
[12]
  IC50: 28.5 µM (not active)

## CC(C)N(C(=O)Nc1ccc2nccnc2c1)C(C)C
[13]
  IC50: > 50 µM (not active)

## Cc1cc(NC(=O)Cc2csc(-c3ccccc3)n2)ccc1Br
[5]
  IC50: > 100 µM (not active)
[6]
  IC50: > 100 µM (inactive)

## COc1cccc(-c2ccc3c(c2)[C@@H]2[C@@H](CCN2C(=O)NC2CCCCC2)[C@@H](CO)N3C)c1
[14]
  AC50: 41.4 µM (active)
[4]
  AC50: 2.88 µM (active)

## COc1ccccc1OCC(=O)Nc1cc(S(=O)(=O)N2CCCCC2)ccc1N1CCCCC1
[15]
  EC50: 6.4 µM (not active)

## CC(SCc1ccccc1)C(=O)NCc1ccccn1 (stereo not given)
[5]
  IC50: > 100 µM (not active)
[6]
  IC50: > 100 µM (inactive)

## N#C/C(=C\c1ccc(-c2ccc(C(=O)O)cc2)o1)C(=O)NCC1CCCO1 (stereo not given)
[16]
  AC50: > 20 µM (inactive)

## CCN1C(=O)C(=Cc2cc(C)n(C3CC3)c2C)C(=O)N(CC)C1=S
[13]
  IC50: > 50 µM (not active)
[17]
  EC50: 44.4 µM (inactive)
[18]
  EC50: > 99 µM (inactive)

## Oc1[nH]c2ccccc2c1/C=N/c1nccs1
[19]
  AC50: 25.1 µM (inconclusive)
[12]
  IC50: 46.6 µM (not active)

## CCOC(=O)c1[nH]nc2ccccc12
[12]
  IC50: > 31 µM (not active)

## CCC1CCCCN1S(=O)(=O)c1ccc(S(=O)(=O)N(Cc2cccs2)C2CC2)cc1 (stereo not given)
[20]
  EC50: 1.16 µM (active)
[21]
  EC50: > 29.9 µM (not active)

## C[C@@H]1CCCCO[C@@H](CN(C)Cc2ccc(Cl)c(Cl)c2)[C@@H](C)CN([C@@H](C)CO)C(=O)c2cc(NS(=O)(=O)c3cccs3)ccc2O1
[3]
  AC50: 1.54 µM (active)

## O=c1c2ccccc2oc2cc(C#CC3(O)CCCCC3)ccc12
[9]
  IC50: > 9.49 µM (active)

## CNCc1ccccc1Sc1cccc(O)c1
[16]
  AC50: > 20 µM (inactive)

## O=C(Nc1ccc(-c2csnn2)cc1)C1CC1
[1]
  IC50: > 100 µM (active)
[15]
  EC50: 3.55 µM (not active)

## CCN(CC)CCCN(Cc1cc2cc3c(cc2nc1O)OCO3)C(S)=NCc1ccco1
[16]
  AC50: > 20 µM (inactive)
